Drawing on ChEMBL document CHEMBL4266026, “Bisleuconothines B-D, Modified Eburnane-Aspidosperma Bisindole Alkaloids from Leuconotis griffithii” (J Nat Prod, 2018), this text covers IC50 for three compounds.

For orientation: IC50 means the midpoint of a concentration-inhibition curve.

In this assay the test system is A549. Kind of assay: Cytotoxicity against human A549 cells assessed as cell growth inhibition by MTT assay. Type of assay: functional, cell-based. (In general: Tetrazolium dyes change colour on reduction, which living cells bring about.)
Consider `CC[C@@]12CCCN3CC[C@]4(c5c(O)ccc([C@H]6C[C@@]7(CC)CCCN8CC[C@]9(C(=O)c%10ccccc%10N69)[C@H]87)c5N[C@@H]4CC1)[C@H]32`, for which the IC50 came out at 20.1 µM. As for `CC[C@]12C=C(c3ccc(O)c4c3N[C@@H]3CC[C@@]5(CC)CCCN6CC[C@@]43[C@H]65)N3c4ccccc4C(=O)[C@]34CCN(CCC1)[C@H]24`, the concentration for half-maximal inhibition (IC50) amounted to 33.6 µM. Regarding `CC[C@@]12CCCN3CC[C@]4(c5c(ccc6c5O[C@@]57[C@@H]8N9CCC[C@]8(CC)C[C@@H]6N5c5ccccc5[C@]7(O)CC9)N(C=O)[C@@H]4CC1)[C@H]32`, the IC50 was 36.1 µM.
